Data taken from patent US20260183275A1, “SUBSTITUTED QUINOLONE COMPOUNDS USEFUL AS INHIBITORS OF TLR9” (Bristol-Myers Squibb Company, priority 2022, published 2026).

Legend:
Type in all cases: cell-based
human TLR8 = molecular target: T1, human TLR8 (Homo sapiens, UniProt Q9NR97); assay: TLR8 inhibition reporter assay (HEK-Blue cells, SEAP reporter); conditions: HEK-Blue cells overexpressing human TLR8; stimulated with R848 15.9 μM; SEAP read after 22 hour; dose range 0.05 nM-50 μM
T1 construct: host or cells: HEK-Blue cells
T1 sequence (Q9NR97 27-1041): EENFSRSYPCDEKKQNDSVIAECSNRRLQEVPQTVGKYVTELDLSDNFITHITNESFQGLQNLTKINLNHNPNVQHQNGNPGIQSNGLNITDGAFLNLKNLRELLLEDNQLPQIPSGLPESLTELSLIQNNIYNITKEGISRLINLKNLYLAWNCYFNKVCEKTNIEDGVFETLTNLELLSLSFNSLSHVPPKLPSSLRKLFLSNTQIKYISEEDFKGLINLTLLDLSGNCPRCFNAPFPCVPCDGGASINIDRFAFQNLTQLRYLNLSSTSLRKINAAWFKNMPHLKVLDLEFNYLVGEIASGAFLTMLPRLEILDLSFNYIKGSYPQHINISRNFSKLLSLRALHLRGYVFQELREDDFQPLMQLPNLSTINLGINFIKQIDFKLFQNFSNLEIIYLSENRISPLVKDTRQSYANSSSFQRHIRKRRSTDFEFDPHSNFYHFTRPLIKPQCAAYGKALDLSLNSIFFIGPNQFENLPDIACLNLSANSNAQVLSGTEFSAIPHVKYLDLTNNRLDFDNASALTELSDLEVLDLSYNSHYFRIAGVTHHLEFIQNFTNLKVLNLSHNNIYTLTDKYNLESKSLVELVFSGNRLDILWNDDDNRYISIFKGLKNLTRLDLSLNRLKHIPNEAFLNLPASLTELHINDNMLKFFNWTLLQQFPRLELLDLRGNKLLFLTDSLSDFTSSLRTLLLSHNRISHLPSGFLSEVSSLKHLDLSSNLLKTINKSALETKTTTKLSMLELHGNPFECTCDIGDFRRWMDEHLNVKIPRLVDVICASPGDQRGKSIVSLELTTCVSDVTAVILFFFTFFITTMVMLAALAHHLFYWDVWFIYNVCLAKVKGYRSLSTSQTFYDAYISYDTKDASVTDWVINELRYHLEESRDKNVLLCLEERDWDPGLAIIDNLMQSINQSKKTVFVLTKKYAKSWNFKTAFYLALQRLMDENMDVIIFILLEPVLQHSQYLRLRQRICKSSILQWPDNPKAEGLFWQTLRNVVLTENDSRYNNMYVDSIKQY
Procedure: (§1) HEK-Blue™-cells (Invivogen) overexpressing human TLR7, TLR8 or TLR9 receptors were used for screening inhibitors of these receptors using an inducible SEAP (secreted embryonic alkaline phosphatase) reporter gene under the control of the IFN-β minimal promoter fused to five NF-κB and AP-1-binding sites. Briefly, cells are seeded into Greiner 384 well plates (15000 cells per well for TLR7, 20,000 for TLR8 and 25,000 for TLR9) and then treated with test compounds in DMSO to yield a final dose response concentration range of 0.05 nM-50 μM. After a 30 minute compound pre-treatment at room temperature, the cells are then stimulated with a TLR7 ligand (gardiquimod at a final concentration of 7.5 μM), TLR8 ligand (R848 at a final concentration of 15.9 μM) or TLR9 ligand (ODN2006 at a final concentration of 5 nM) to activate NF-κB and AP-1 which induce the production of SEAP. After a 22 hour incubation at 37° C., 5% CO2, SEAP levels are determined with the addition of HEK-Blue™ Detection reagent (Invivogen), a cell culture medium that allows for detection of SEAP, according to manufacturer's specifications. The percent inhibition is determined as the % reduction in the HEK-Blue signal present in wells treated with agonist plus DMSO alone compared to wells treated with a known inhibitor.

human TLR9 = molecular target: T2, human TLR9 (Homo sapiens, UniProt Q9NR96); assay: TLR9 inhibition reporter assay (HEK-Blue cells, SEAP reporter); conditions: HEK-Blue cells overexpressing human TLR9; stimulated with ODN2006 5 nM; SEAP read after 22 hour; dose range 0.05 nM-50 μM
T2 construct: host or cells: HEK-Blue cells
T2 sequence (Q9NR96 26-1032): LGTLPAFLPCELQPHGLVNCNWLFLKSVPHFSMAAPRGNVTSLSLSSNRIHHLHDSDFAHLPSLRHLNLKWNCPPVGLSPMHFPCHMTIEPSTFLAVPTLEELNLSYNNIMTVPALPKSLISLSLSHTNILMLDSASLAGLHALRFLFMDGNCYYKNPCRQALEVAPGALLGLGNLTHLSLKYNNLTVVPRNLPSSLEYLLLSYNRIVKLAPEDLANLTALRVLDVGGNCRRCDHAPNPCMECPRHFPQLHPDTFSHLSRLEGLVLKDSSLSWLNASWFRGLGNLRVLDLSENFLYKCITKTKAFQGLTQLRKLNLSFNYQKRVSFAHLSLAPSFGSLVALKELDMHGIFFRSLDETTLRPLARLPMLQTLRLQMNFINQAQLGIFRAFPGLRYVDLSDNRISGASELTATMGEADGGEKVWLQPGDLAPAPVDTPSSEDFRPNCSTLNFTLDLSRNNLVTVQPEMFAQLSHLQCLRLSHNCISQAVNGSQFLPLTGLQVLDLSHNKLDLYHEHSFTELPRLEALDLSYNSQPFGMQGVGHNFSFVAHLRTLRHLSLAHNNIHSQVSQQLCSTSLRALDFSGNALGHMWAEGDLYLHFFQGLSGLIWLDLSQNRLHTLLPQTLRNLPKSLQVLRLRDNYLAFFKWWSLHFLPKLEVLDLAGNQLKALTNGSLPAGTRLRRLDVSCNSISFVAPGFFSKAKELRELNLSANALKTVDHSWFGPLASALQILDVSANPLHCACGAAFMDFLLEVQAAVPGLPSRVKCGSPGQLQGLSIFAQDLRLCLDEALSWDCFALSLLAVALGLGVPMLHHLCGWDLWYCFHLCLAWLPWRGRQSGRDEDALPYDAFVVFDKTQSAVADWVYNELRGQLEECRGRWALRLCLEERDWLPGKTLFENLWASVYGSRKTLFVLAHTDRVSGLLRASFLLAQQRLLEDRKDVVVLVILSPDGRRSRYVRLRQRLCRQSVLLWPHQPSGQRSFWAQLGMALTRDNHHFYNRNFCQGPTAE
Procedure: as §1

human TLR7 = molecular target: T3, human TLR7 (Homo sapiens, UniProt Q9NYK1); assay: TLR7 inhibition reporter assay (HEK-Blue cells, SEAP reporter); conditions: HEK-Blue cells overexpressing human TLR7; stimulated with gardiquimod 7.5 μM; SEAP read after 22 hour; dose range 0.05 nM-50 μM
T3 construct: host or cells: HEK-Blue cells
T3 sequence (Q9NYK1 27-1049): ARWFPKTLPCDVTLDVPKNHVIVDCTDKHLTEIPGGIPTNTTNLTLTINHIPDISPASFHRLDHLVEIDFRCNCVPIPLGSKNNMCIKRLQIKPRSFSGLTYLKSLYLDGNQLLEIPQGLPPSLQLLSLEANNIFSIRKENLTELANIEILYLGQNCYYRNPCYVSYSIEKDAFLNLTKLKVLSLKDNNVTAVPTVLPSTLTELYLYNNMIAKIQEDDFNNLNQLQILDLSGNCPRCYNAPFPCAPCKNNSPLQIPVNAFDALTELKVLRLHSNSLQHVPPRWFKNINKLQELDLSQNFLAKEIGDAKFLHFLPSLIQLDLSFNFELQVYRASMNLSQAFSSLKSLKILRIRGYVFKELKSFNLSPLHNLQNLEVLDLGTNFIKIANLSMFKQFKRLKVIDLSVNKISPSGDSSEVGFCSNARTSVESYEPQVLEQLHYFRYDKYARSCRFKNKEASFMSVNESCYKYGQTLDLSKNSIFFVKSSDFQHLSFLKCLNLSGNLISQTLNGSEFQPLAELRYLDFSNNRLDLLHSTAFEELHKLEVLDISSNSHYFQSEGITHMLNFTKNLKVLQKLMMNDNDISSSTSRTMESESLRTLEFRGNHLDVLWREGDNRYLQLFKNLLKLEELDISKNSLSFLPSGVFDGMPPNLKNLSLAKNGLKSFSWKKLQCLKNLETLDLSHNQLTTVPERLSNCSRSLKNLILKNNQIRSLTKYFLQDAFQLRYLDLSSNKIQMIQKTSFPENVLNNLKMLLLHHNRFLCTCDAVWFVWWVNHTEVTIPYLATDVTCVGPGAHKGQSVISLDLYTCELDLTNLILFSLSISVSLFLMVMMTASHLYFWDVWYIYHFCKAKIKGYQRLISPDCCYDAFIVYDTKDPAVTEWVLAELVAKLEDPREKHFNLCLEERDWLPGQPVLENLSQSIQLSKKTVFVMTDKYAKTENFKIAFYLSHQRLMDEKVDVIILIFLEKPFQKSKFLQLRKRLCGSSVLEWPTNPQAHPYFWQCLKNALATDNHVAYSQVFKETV
Procedure: as §1

## CC(C)N1CCN(c2ccc(-c3ccc4[nH]c(=O)c(-c5ccccc5NS(C)(=O)=O)cc4c3)cc2)CC1 [Example 29, N-[2-(2-oxo-6-{4-[4-(propan-2-yl)piperazin-1-yl]phenyl}-1,2-dihydroquinolin-3-yl)phenyl]methanesulfonamide]
Human TLR8
  IC50: 1830 nM
Human TLR9
  IC50: 275 nM
Human TLR7
  IC50: 5860 nM

## COc1cccc(-c2cc3cc(-c4ccc(N5CCN(C(C)C)CC5)cc4)ccc3[nH]c2=O)c1 [Example 30, 3-(3-methoxyphenyl)-6-{4-[4-(propan-2-yl)piperazin-1-yl]phenyl}-1,2-dihydroquinolin-2-one]
Human TLR8
  IC50: 5220 nM
Human TLR9
  IC50: 277 nM
Human TLR7
  IC50: 2160 nM

## CC(C)N1CCN(c2ccc(-c3ccc4[nH]c(=O)c(-c5ccc(F)cc5)cc4c3)cc2)CC1 [Example 31, 3-(4-fluorophenyl)-6-{4-[1-(propan-2-yl)piperazin-1-yl]phenyl}-1,2-dihydroquinolin-2-one]
Human TLR8
  IC50: 16700 nM
Human TLR9
  IC50: 286 nM
Human TLR7
  IC50: 42600 nM

## CC(C)N1CCN(c2ccc(-c3ccc4[nH]c(=O)c(-c5cccnc5)cc4c3)cc2)CC1 [Example 32, 6-{4-[4-(propan-2-yl)piperazin-1-yl]phenyl}-3-(pyridin-3-yl)-1,2-dihydroquinolin-2-one]
Human TLR8
  IC50: 17 nM
Human TLR9
  IC50: 293 nM
Human TLR7
  IC50: 418 nM

## CC(C)N1CCN(c2ccc(-c3ccc4[nH]c(=O)c(-c5ccccc5C(F)(F)F)cc4c3)cc2)CC1 [Example 33, 6-{4-[4-(propan-2-yl)piperazin-1-yl]phenyl}-3-[2-(trifluoromethyl)phenyl]-1,2-dihydroquinolin-2-one]
Human TLR8
  IC50: 4700 nM
Human TLR9
  IC50: 300 nM
Human TLR7
  IC50: 2230 nM

## CC(C)N1CCN(c2ccc(-c3ccc4[nH]c(=O)c(-c5nn(C)c6ccccc56)cc4c3)cc2)CC1 [Example 35, 3-(1-methyl-1H-indazol-3-yl)-6-{4-[4-(propan-2-yl)piperazin-1-yl]phenyl}-1,2-dihydroquinolin-2-one]
Human TLR8
  IC50: 14100 nM
Human TLR9
  IC50: 314 nM
Human TLR7
  IC50: 1290 nM

## CC(C)N1CCN(c2ccc(-c3ccc4[nH]c(=O)c(-c5ccc(OC(F)F)cc5)cc4c3)cc2)CC1 [Example 36, 3-[4-(difluoromethoxy)phenyl]-6-{4-[4-(propan-2-yl)piperazin-1-yl]phenyl}-1,2-dihydroquinolin-2-one]
Human TLR8
  IC50: ≥ 50000 nM
Human TLR9
  IC50: 344 nM
Human TLR7
  IC50: ≥ 50000 nM

## CC(C)N1CCN(c2ccc(-c3ccc4[nH]c(=O)c(-c5c(Cl)cccc5Cl)cc4c3)cc2)CC1 [Example 37]
Human TLR8
  IC50: ≥ 50000 nM
Human TLR9
  IC50: 367 nM
Human TLR7
  IC50: 5560 nM

## CC(C)N1CCN(c2ccc(-c3ccc4[nH]c(=O)c(-c5ccc(Cl)cc5Cl)cc4c3)cc2)CC1 [Example 38, 3-(2,4-dichlorophenyl)-6-{4-[4-(propan-2-yl)piperazin-1-yl]phenyl}-1,2-dihydroquinolin-2-one]
Human TLR8
  IC50: ≥ 50000 nM
Human TLR9
  IC50: 376 nM
Human TLR7
  IC50: 8880 nM

## CC(C)N1CCN(c2ccc(-c3ccc4[nH]c(=O)c(-c5ccc(Cl)cc5)cc4c3)cc2)CC1 [Example 39, 3-(4-chlorophenyl)-6-{4-[4-(propan-2-yl)piperazin-1-yl]phenyl}-1,2-dihydroquinolin-2-one]
Human TLR8
  IC50: ≥ 50000 nM
Human TLR9
  IC50: 387 nM
Human TLR7
  IC50: ≥ 50000 nM

## CC(C)N1CCN(c2ccc(-c3ccc4[nH]c(=O)c(-c5c(F)c(F)c(F)c(F)c5F)cc4c3)cc2)CC1 [Example 40, 3-(2,3,4,5,6-pentafluorophenyl)-6-{4-[4-(propan-2-yl)piperazin-1-yl]phenyl}-1,2-dihydroquinolin-2-one]
Human TLR8
  IC50: ≥ 50000 nM
Human TLR9
  IC50: 399 nM
Human TLR7
  IC50: ≥ 50000 nM

## CC(C)N1CCN(c2ccc(-c3ccc4[nH]c(=O)c(-c5c(F)cc(F)cc5F)cc4c3)cc2)CC1 [Example 41, 6-{4-[4-(propan-2-yl)piperazin-1-yl]phenyl}-3-(2,4,6-trifluorophenyl)-1,2-dihydroquinolin-2-one]
Human TLR8
  IC50: ≥ 50000 nM
Human TLR9
  IC50: 411 nM
Human TLR7
  IC50: 4770 nM

## CC(C)N1CCN(c2ccc(-c3ccc4[nH]c(=O)c(-c5ccccc5F)cc4c3)cc2)CC1 [Example 42, 3-(2-fluorophenyl)-6-{4-[4-(propan-2-yl)piperazin-1-yl]phenyl}-1,2-dihydroquinolin-2-one]
Human TLR8
  IC50: 2470 nM
Human TLR9
  IC50: 427 nM
Human TLR7
  IC50: 2140 nM
